# Measured values taken from US12076331B2, “Inositol derivatives for use in pathological crystallization” (ETH Zurich, priority 2015, dated 2024).
# Experiments:
# [1] = tested on: RPTEC/TERT 1 human proximal tubule cells; test: Imaging assay of CaP adhesion/deposition and cellular changes on RPTEC monolayers; assay type: cell-based
# Description: (A) Heatmap and hierarchical clustering of extracted image features. (B) Selected single features describing cellular changes upon increasing (OEG2)2-IP4 concentrations are depicted. Total cell count, dead cell count, single cell area and single cell solidity, a measure of cell compactness, are shown. (C) Selected single features describing changes in the CaP deposition and membrane pattern upon increasing (OEG2)2-IP4 concentrations are depicted. The total area of the binary calcein staining, colorimetric quantification of calcium content extracted from the monolayer, the maximum intensity of the calcein fluorescence, structural similarity index metric (SSIM) and the correlation of the CellMask channel image are shown. (D) Example brightfield, calcein, CellMask and EthD channel images and two zoomed-in regions of interests (ROI) of RPTEC treated with 13 μM (OEG2)2-IP4 are shown. Mean scaled values per individual experiment are plotted (N=3). Pos.ctrl presents treatment with 5/7 mM Ca/P, neg.ctrl presents medium without Ca/P spiking (=1/1 mM Ca/P present in normal cell medium). Mean of three individual experiments and SD is plotted as grey horizontal and vertical line respectively, one-way ANOVA with Dunnet's multiple comparison between each concentration to pos. ctrl was performed (* p<0.01).
# RPTEC/TERT 1 monolayers at confluence were treated with medium spiked with 7 mM disodium phosphate, 5 mM calcium chloride and compound and were incubated for 24 h. The amount of CaP deposits and the extent of cell injury were detected by calcein and EthD staining, respectively. Fluorescence images were quantified using Matlab. Quantification of the area covered with CaP deposition on RPTEC monolayers with (A) OEG2-IP5, (B) OEG11-IP5, (C) (OEG2)2-IP4, and (D) OEG8-(IP5)2 treatment. (N=3, mean+SD, one-way ANOVA with Dunnett's multiple comparison, * p<0.05, ** p<0.01, *** p<0.001).
# RPTEC/TERT 1 human proximal tubule cells (RPTEC) were cultured in T75 tissue culture flasks using ProxUp basal medium mixed with ProxUp supplements at 37° C. and 5% CO2 according to manufacturer's recommendations. Cells were used up to passage 30 and regularly tested for Mycoplasma infections. For experiments, RPTEC were cultured in 24-well plates at a seeding density of 150′000 cells/cm^2. Cell viability assessment and cell counting before seeding was performed using an automated cell counter (BioRad TC 20, Hercules, CA, USA).
# For the comparison of selected IP6 analogues, ProxUp basal medium was prepared with the selected inhibitor and added to each well. Then, CaP precipitation was induced by direct addition of first, phosphate and second, calcium. Final concentrations of 7 mM phosphate and 5 mM calcium were used. Cells were incubated for 24 h at 37° C. and 5% CO2. Spiked medium was removed, and cells were washed twice with PBS before staining.
# For staining, ProxUp basal medium was mixed with calcein (500 nM final concentration), EthD (6 μM final concentration), CellMask stain ([…]) and Hoechst 33342. Staining mixture was added to RPTEC and cells were incubated for 30 min in the dark at 37° C. and 5% CO2. Staining solution was removed, cells were washed with PBS once and ProxUp basal medium was added. Cells were immediately imaged after staining. Images were obtained by epifluorescence microscopy at 37° C., using a Leica CTR6000 microscope. For quantification 3 wells/condition were prepared and 3 images/well were taken. For preliminary adhesion experiments images were taken with a 10× objective, for the imaging assay 20× objective images were taken.
# Multichannel images were saved as individual channel images in 8-bit tiff format. For analysis Hoechst channel images were thresholded using the triangle threshold. Touching nuclei of the binary image were further segmented using the watershed algorithm with the distance transform of the binary image as input and local maxima thereof as seeds. […]
# [2] = tested on: RPTEC/TERT 1 human proximal tubule cells; test: RNA sequencing of Ca/P treated RPTEC; assay type: cell-based; conditions: 50 μM, 5/7 mM Ca/P, 24 h
# Description: A) Heatmap and hierarchical clustering of relative gene expression levels determined by RNA sequencing. […] Weighted set coverage of gene ontology terms and their respective enrichment score for differentially expressed genes in the Ca/P vs. medium control group is plotted (all FDR≤0.05). D) Normalized count of gene transcripts (FPKM—fragments per kilobase of exon model per million reads mapped) involved in inflammatory responses, ECM composition, cell proliferation and tissue homeostasis of the different treatment groups is plotted (mean+SD, N=3).
# Cells were cultured as described in the imaging assay and treated with a medium control (ProxUp basal medium containing 1/1 mM Ca/P), 5/7 mM Ca/P, 5/7 mM Ca/P in medium containing 50 µM (OEG2)2-IP4 or 50 µM (OEG2)2-IP4 in medium for 24 h. Total RNA was extracted using the RNeasy kit (Quiagen) according to the manufacturer's instructions. Three wells per sample group were prepared and total RNA extracted of those 3 wells pooled. mRNA was purified and RNAseq library was prepared using the TrueSeq RNA kit (Illumina). […] Reads were aligned to the human reference genome GRCh38.p10 using the STAR tool (https://github.com/alexdobin/STAR) and transcripts quantified using the Kallisto program (42). […] For comparison of expression levels of the selected genes, the fragments per kilobase of exon model per million reads mapped (FPKM) were used. […]
# [3] = 6-50 μM, 5/7 mM Ca/P, compared to the positive ctrl
# [4] = RPTEC, 7 mM phosphate, 5 mM calcium, 24 h
smiles,measurement,setting,value
COCCOCCO[C@@H]1C(OP(=O)(O)O)[C@H](OCCOCCOC)[C@@H](OP(=O)(O)O)C(OP(=O)(O)O)[C@H]1OP(=O)(O)O (some centres unmarked) [(OEG2)2-IP4],number of dead cells,[1]; [3],dose-dependently reduced
same,single cell area,[1]; [3],dose-dependently reduced
same,single cell solidity,[1]; [3],increased
same,total cell count/field of view,[1]; [3],increased
same,total CaP area,"[1]; 6 and 13 μM, 5/7 mM Ca/P, compared to the positive ctrl",reduction
same,concentration achieving complete inhibition of CaP adhesion,[1]; [4],50 µM
same,concentration down to which CaP adhesion was drastically reduced,[1]; [4],12.5 µM
same,Ca/P-induced change in gene expression profile,[2],prevented
